In one assay the test system is brain levels of total Aβ. Description: In vivo efficacy: brain Aβtotal lowering (ELISA). Particulars: 30 mpk, 2 h after administration. The arrangement: species or system mouse. The text has this:
(§1) To determine whether acute administration of an Aβ42 peptide lowering agent would reduce Aβ peptide levels in vivo, non-transgenic rodents, e.g. mice or rats were used. Animals treated with the Aβ peptide lowering agent were examined and compared to those untreated or treated with vehicle and brain levels of soluble Aβ42 and total Aβ were quantitated by standard techniques, for example, using ELISA. Treatment periods varied from hours (h) to days and were adjusted based on the results of the Aβ42 lowering once a time course of onset of effect could be established.
(§2) A typical protocol for measuring Aβ42 lowering in vivo is shown but it is only one of many variations that could be used to optimize the levels of detectable Aβ. For example, Aβpeptide lowering compounds were formulated in 20% hydroxypropyl β cyclodextrin. The Aβ peptide lowering agents were administered as a single oral dose (p.o.) or a single subcutaneous dose (s.c.) to overnight fasted animals. After a certain time, usually 2 or 4 h (as indicated in Table 19), the animals were sacrificed and Aβ42 levels were analysed.
(§3) Blood was collected by decapitation and exsanguinations in EDTA-treated collection tubes. Blood was centrifuged at 1900 g for 10 minutes (min) at 4° C. and the plasma recovered and flash frozen for later analysis. The brain was removed from the cranium and hindbrain. The cerebellum was removed and the left and right hemisphere were separated. The left hemisphere was stored at −18° C. for quantitative analysis of test compound levels. The right hemisphere was rinsed with phosphate-buffered saline (PBS) buffer and immediately frozen on dry ice and stored at −80° C. until homogenization for biochemical assays.
(§4) Mouse brains from non-transgenic animals were resuspended in 8 volumes of 0.4% DEA (diethylamine)/50 mM NaCl containing protease inhibitors (Roche-11873580001 or 04693159001) per gram of tissue, e.g. for 0.158 g brain, add 1.264 ml of 0.4% DEA. All samples were homogenized in the FastPrep-24 system (MP Biomedicals) using lysing matrix D (MPBio #6913-100) at 6 m/s for 20 seconds. Homogenates were centrifuged at 221.300×g for 50 min. The resulting high speed supernatants were then transferred to fresh eppendorf tubes. Nine parts of supernatant were neutralized with 1 part 0.5 M Tris-HCl pH 6.8 and used to quantify Aβtotal and Aβ42.
(§5) To quantify the amount of Aβtotal and Aβ42 in the soluble fraction of the brain homogenates, Enzyme-Linked-Immunosorbent-Assays were used. Briefly, the standards (a dilution of synthetic Aβ1-40 and Aβ1-42, Bachem) were prepared in 1.5 ml Eppendorf tube in Ultraculture, with final concentrations ranging from 10000 to 0.3 pg/ml. The samples and standards were co-incubated with HRPO-labelled N-terminal antibody for Aβ42 detection and with the biotinylated mid-domain antibody 4G8 for Aβtotal detection. 50 μl of conjugate/sample or conjugate/standards mixtures were then added to the antibody-coated plate (the capture antibodies selectively recognize the C-terminal end of Aβ42, antibody JRF/cAβ42/26, for Aβ42 detection and the N-terminus of Aβ, antibody JRF/rAβ/2, for Aβtotal detection). The plate was allowed to incubate overnight at 4° C. in order to allow formation of the antibody-amyloid complex. Following this incubation and subsequent wash steps the ELISA for Aβ42 quantification was finished by addition of Quanta Blu fluorogenic peroxidase substrate according to the manufacturer's instructions (Pierce Corp., Rockford, Il). A reading was performed after 10 to 15 min (excitation 320 nm/emission 420 nm).
For Aβtotal detection, a Streptavidine-Peroxidase-Conjugate was added, followed 60 min later by an additional wash step and addition of Quanta Blu fluorogenic peroxidase substrate according to the manufacturer's instructions (Pierce Corp., Rockford, Il). A reading was performed after 10 to 15 min (excitation 320 nm/emission 420 nm).
(In general: An ELISA detects its analyte on a solid surface through an enzyme-linked reagent.)

Assay [1] concerns Aβ42 produced and secreted into the medium of human neuroblastoma SKNBE2 cells. Description: Cellular αlisa assay in SKNBE2 cells, Aβ42. The class given is cell-based. Particulars: Homo sapiens, SKNBE2, 18 h, SKNBE2 cells expressing hAPP695, incubated for 18 hours; read-out: Cellular αlisa assay in SKNBE2 cells Aβ42 pIC50 (converted). The procedure:
(§6) In two αlisa assays the levels of Aβtotal and Aβ42 produced and secreted into the medium of human neuroblastoma SKNBE2 cells are quantified. The assay is based on the human neuroblastoma SKNBE2 expressing the wild type Amyloid Precursor Protein (hAPP695). The compounds are diluted and added to these cells, incubated for 18 hours and then measurements of Aβ42 and Aβtotal are taken. Aβtotal and Aβ42 are measured by sandwich αlisa. αlisa is a sandwich assay using biotinylated antibody AbN/25 attached to streptavidin coated beads and antibody Ab4G8 or cAb42/26 conjugated acceptor beads for the detection of Aβtotal and Aβ42 respectively. In the presence of Aβtotal or Aβ42, the beads come into close proximity. The excitation of the Donor beads provokes the release of singlet oxygen molecules that triggers a cascade of energy transfer in the Acceptor beads, resulting in light emission. Light emission is measured after 1 hour incubation (excitation at […] and emission at 615 nm).
(§7) A best-fit curve is fitted by a minimum sum of squares method to the plot of % Controlmin versus compound concentration.
(§8) LC=Median of the low control values
(§9) =Low control: cells preincubated without compound, without biotinylated Ab in the αlisa
(§10) HC=Median of the High control values
(§11) =High Control: cells preincubated without compound % Effect=100−[(sample−LC)/(HC−LC)*100] % Control=(sample/HC)*100% % Controlmin=(sample−LC)/(HC−LC)*100

The subject of assay [2] is Aβtotal produced and secreted into the medium of human neuroblastoma SKNBE2 cells. In words: Cellular αlisa assay in SKNBE2 cells, Aβtotal. Particulars: Homo sapiens, SKNBE2, 18 h, SKNBE2 cells expressing hAPP695, incubated for 18 hours; read-out: Cellular αlisa assay in SKNBE2 cells Aβtotal pIC50 (converted). It is filed as cell-based. The procedure:
as §6, §7, §8, §9, §10, §11

The target of assay [3] is T1, recombinant BACE1 protein (Homo sapiens, UniProt P56817).
T1 construct: recombinant BACE1 protein in a final concentration of 1 μg/ml
T1 sequence (P56817 46-501): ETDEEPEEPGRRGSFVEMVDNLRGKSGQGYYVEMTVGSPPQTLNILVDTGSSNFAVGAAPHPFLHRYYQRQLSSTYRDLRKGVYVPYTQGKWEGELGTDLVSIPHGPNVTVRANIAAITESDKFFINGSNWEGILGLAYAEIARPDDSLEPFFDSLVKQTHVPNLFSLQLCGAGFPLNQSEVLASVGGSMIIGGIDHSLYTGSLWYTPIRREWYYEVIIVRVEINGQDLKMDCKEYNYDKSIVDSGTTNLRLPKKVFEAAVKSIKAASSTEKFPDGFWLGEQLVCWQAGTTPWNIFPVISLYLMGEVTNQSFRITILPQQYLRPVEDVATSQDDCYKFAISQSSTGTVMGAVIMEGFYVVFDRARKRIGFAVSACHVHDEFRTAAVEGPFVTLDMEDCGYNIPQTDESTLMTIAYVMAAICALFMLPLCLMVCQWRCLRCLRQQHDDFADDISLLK
Description: Biochemical FRET based assay. Particulars: recombinant BACE1 1 μg/ml, 10 μm substrate, 120 minutes, room temperature, pH 5.0; read-out: Biochemical FRET based assay pIC50 (converted).
Description: This assay is a Fluorescence Resonance Energy Transfer Assay (FRET) based assay. The substrate for this assay is an APP derived 13 amino acids peptide that contains the ‘Swedish’ Lys-Met/Asn-Leu mutation of the amyloid precursor protein (APP) β-secretase cleavage site. This substrate also contains two fluorophores: (7-methoxycoumarin-4-yl) acetic acid (Mca) is a fluorescent donor with excitation wavelength at 320 nm and emission at 405 nm and 2,4-Dinitrophenyl (Dnp) is a proprietary quencher acceptor. […] Upon cleavage by BACE1, the fluorophore Mca is separated from the quenching group Dnp, restoring the full fluorescence yield of the donor. The increase in fluorescence is linearly related to the rate of proteolysis (Koike H et al. J. Biochem. 1999, 126, 235-242).
Briefly in a 384-well format recombinant BACE1 protein in a final concentration of 1 μg/ml is incubated for 120 minutes at room temperature with 10 μm substrate in incubation buffer (40 mM Citrate buffer pH 5.0, 0.04% PEG, 4% DMSO) in the absence or presence of compound. Next the amount of proteolysis is directly measured by fluorescence measurement at T=0 and T=120 (excitation at 320 nm and emission at 405 nm).
as §8
=Low control: Reaction without enzyme
as §10
=High Control: Reaction with enzyme % Effect=100−[(sample−LC)/(HC−LC)*100] % Control=(sample/HC)*100% % Controlmin=(sample−LC)/(HC−LC)*100

The test system of assay [4] is brain levels of soluble Aβ42. In words: In vivo efficacy: brain Aβ42 lowering (ELISA). Particulars: 30 mpk, 2 h after administration. The arrangement: species or system mouse.
Description: as §1, §2, §3, §4, §5
In this model at least 20% Aβ42 lowering compared to untreated animals would be advantageous.

In the case of `COc1cnc(C(=O)Nc2ccc(F)c(C3(C)Cn4ccnc4C(N)=N3)c2)cn1` (single isomer, unassigned) [Compound 9], the “Aβtotal (% Ctrl)_Mean” value in the assay on brain levels of total Aβ (p.o.) came out at 63 % Ctrl; in the assay on brain levels of total Aβ (s.c.), 49 % Ctrl. Moreover, the IC50 is 35.5 nM in assay [1], 31.6 nM in assay [2] and 148 nM in assay [3]. Besides, the entries for the “Aβ42 (% Ctrl)_Mean” value in assay [4] (p.o.) and in assay [4] (s.c.) were 40 % Ctrl and 57 % Ctrl, respectively.
